Assay results as given in patent publication US20120071475A1, “UREA DERIVATIVES HAVING PI3K-INHIBITING ACTIVITY” (SHIONOGI & CO., LTD., priority 2009, published 2012).
Converted amounts (≈) assume the structure as drawn. Where two headings read alike, the source gives them in different places.

Tests used:
[1] = molecular target: T1, PI3Kγ (Homo sapiens, UniProt P48736); test: PI3Kγ inhibitory activity (PI3-kinase HTRF assay, inhibition ratio); type: biochemical; conditions: 0.5 h, compound at 10 μmol/L; read-out: PI3Kg Inhibition Ratio % (10 μM)
T1 sequence (P48736 whole entry, species assumed): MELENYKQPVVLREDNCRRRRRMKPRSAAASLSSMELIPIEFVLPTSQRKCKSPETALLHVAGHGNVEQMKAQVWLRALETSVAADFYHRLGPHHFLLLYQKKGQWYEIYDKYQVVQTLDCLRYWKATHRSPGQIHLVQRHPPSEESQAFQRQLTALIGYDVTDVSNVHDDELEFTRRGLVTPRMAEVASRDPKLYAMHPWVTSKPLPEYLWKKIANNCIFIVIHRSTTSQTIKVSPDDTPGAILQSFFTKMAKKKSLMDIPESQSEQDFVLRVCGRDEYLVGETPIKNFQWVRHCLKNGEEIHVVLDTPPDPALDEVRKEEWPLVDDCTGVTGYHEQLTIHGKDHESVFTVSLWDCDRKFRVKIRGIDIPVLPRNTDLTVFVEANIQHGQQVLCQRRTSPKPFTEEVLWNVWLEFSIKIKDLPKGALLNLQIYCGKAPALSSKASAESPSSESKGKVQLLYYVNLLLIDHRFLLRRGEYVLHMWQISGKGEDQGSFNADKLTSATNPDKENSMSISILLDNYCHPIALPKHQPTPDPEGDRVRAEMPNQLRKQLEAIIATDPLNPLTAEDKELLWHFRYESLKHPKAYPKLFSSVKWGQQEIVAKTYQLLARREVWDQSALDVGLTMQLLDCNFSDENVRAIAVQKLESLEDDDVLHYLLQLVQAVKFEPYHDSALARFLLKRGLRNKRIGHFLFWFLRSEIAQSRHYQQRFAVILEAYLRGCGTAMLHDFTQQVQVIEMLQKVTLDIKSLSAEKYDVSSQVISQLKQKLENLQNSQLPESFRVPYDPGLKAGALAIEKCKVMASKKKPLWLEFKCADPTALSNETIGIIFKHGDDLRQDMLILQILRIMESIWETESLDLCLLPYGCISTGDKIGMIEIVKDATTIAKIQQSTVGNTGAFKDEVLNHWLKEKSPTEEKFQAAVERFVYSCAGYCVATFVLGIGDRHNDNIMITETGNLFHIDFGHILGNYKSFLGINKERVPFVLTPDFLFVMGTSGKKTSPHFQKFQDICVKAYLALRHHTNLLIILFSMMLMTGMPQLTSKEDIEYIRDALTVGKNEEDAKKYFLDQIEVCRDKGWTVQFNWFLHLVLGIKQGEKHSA
In short: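 Compound at 10 μmol/L preincubated 10 min with PI3Kγ and PIP2 substrate, then reacted with ATP for 30 minutes at room temperature; the compound, substrate and ATP figures as printed (40 μmol/L each) are solution concentrations. HTRF 665/620 nm ratio read after 18 hours. Inhibition ratio calculated against no-compound (100%) and no-enzyme (0%) controls.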

[2] = molecular target: T2, CYP3A4 (Homo sapiens, UniProt P08684); test: CYP3A4 fluorescence MBI test; type: in vitro ADME; conditions: difference in IC50 with 0 or 30 minutes pre-reaction; CYP3A4 expressed in E. coli, substrate 7-BFC
T2 construct: host or cells: E. coli
T2 sequence (P08684 whole entry): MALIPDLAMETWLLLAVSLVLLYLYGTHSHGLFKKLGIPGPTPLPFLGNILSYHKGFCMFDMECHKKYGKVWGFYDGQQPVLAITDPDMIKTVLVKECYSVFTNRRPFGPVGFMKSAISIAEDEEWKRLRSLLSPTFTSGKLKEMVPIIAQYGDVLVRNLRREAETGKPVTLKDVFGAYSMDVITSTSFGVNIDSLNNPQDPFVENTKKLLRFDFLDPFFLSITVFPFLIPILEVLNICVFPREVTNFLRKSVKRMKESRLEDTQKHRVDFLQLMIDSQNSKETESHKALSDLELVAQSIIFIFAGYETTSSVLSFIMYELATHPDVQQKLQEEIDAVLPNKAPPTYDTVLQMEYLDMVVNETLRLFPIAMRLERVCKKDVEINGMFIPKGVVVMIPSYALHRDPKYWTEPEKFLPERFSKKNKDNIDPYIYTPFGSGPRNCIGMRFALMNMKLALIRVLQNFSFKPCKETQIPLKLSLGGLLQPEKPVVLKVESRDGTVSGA
In short: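 E. coli-expressed CYP3A4 debenzylating 5.6 μmol/L 7-BFC to fluorescent 7-HFC (Ex 420/Em 535 nm) in K-Pi pH 7.4 at 25° C, 15 min reaction. NADPH pre-incubation of 0 or 30 min, with 10-fold dilution before reaction. IC50 from 0.625–20 μmol/L (6 points); (+) for an IC50 shift ≥5 μmol/L, (−) for ≤3 μmol/L.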

[3] = Solubility test (artificial intestinal juice pH 6.8, 1% DMSO); type: physicochemical; conditions: artificial intestinal juice pH 6.8 with 1% DMSO, fassgf or other biorelevant, kinetic from dmso stock, 25° C.
Description: The solubility of a compound was determined under a condition in which 1% DMSO was added. 10 mmol/L compound solution was prepared using DMSO, and then 6 μL of the compound solution was added to 594 μL of artificial intestinal juice in pH 6.8 (to 250 mL of 0.2 mol/L potassium dihydrogen phosphate reagent solution was added 118 mL of 0.2 mol/L NaOH reagent solution and water to provide a final volume of 1000 mL). After standing at 25° C. for 16 hours, the mixed solution was filtered with suction. The filtrate was diluted twice with methanol/water (1/1), and then a concentration in the filtration was measured with HPLC or LC/MS/MS by the absolute calibration method.

[4] = test system: CYP1A2, CYP2C9, CYP2C19, CYP2D6 and CYP3A4 (one value for the five species); test: CYP inhibition test, five CYP species together (5CYPs_IC50; pooled human liver microsome); type: in vitro ADME; conditions: human, microsomes
Excerpt: O-de-ethylation of 7-ethoxyresorufin (CYP1A2), methyl-hydroxylation of tolbutamide (CYP2C9), 4′-hydroxylation of mephenyloin (CYP2C19), O-demethylation of dextromethorphan (CYP2D6), and hydroxylation of terfenadine (CYP3A4), which are typical substrate for metabolic reactions of human main CYP5 molecular species (CYP1A2, 2C9, 2C19, 2D6, and 3A4), were adopted as indexes.
The reaction conditions are as follows: substrate: 0.5 μmol/L of ethoxyresorufin (CYP1A2), 100 μmol/L of tolbutamide (CYP2C9), 50 μmol/L of S-mephenyloin (CYP2C19), 5 μmol/L of dextromethorphan (CYP2D6), and 1 μmol/L of terfenadine (CYP3A4); reaction time; 15 minutes; reaction temperature: 37° C.; enzyme: pooled human liver microsome 0.2 mg protein/mL; test drug concentration: 1, 5, 10, and 20 μmol/L (4 points).
In a 96-well plate, as a reaction solution, five kinds of substrates, a human liver microsome, and a test drug were added to 50 mmol/L Hepes buffer solution in the aforementioned ratio. A coenzyme NADPH was added to start a metabolic reaction, which is an index. After reacting at 37° C. for 15 minutes, a solution of methanol/acetonitrile (1/1 (v/v)) was added to quench the reaction. After centrifugation at 3000 rpm for 15 minutes, resorufin (CYP1A2 metabolite) in the supernatant was quantitated with a fluorescence multilabel counter, and hydroxylated tolbutamide (CYP2C9 metabolite), 4′-hydroxylated mephenyloin (CYP2C19 metabolite), […], terfenadine in alcohol form (CYP3A4 metabolite) were quantitated with LC/MS/MS.
The case wherein only DMSO (a solvent which dissolved a drug) was added to a reaction system was defined as a control (100%). When a test drug solution was added, the remaining activity (%) at each concentration was calculated, and then IC50 was calculated with a concentration and an inhibition ratio by an inverse estimation using a logistic model.

[5] = molecular target: T3, hERG channel (IKr) (Homo sapiens, UniProt Q12809); test: hERG test (whole-cell patch-clamp, IKr in HEK293 cells); type: cell-based; conditions: human, HEK293 cells expressing hERG channel, pH 7.4, inhibition of maximum tail current (IKr); for inhibition at 10 min, 1 µM: compound 1 μM
T3 construct: expressed in transfected cells; host or cells: HEK293
T3 sequence (Q12809 whole entry): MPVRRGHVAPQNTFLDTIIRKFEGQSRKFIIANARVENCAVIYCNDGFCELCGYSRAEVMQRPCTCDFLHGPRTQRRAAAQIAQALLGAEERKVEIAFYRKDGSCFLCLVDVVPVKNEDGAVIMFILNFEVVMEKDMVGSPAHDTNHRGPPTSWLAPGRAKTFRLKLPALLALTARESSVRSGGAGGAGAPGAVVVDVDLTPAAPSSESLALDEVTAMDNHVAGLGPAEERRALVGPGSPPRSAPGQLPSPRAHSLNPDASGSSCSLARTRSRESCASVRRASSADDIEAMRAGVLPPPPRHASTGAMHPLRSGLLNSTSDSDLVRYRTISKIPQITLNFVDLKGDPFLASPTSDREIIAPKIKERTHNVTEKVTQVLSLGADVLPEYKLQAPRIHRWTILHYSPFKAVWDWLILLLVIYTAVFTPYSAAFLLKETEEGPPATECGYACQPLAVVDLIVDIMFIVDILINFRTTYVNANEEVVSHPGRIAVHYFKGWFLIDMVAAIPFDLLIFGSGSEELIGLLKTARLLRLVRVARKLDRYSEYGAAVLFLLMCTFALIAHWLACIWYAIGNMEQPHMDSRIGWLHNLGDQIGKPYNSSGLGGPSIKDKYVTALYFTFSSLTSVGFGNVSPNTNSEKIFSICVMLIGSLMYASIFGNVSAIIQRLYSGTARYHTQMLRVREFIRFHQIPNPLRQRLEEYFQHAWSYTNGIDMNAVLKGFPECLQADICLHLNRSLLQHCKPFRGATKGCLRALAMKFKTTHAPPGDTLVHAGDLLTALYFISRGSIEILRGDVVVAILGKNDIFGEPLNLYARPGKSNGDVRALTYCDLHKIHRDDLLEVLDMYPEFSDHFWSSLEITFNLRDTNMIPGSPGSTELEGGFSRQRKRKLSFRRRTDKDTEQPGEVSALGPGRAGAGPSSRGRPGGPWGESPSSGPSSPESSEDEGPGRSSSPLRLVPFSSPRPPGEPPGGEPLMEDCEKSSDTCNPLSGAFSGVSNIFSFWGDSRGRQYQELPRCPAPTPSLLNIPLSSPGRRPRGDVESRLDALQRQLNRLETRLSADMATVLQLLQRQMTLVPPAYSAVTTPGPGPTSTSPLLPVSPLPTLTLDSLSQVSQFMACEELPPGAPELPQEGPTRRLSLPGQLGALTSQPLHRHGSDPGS
In short: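 hERG-expressing HEK293 cells, automated whole-cell patch clamp: hold −80 mV, +50 mV for 2 s, then −50 mV for 2 s to record IKr tail current. Compound in extracellular solution (pH 7.4) for 10 min at room temperature; inhibition of maximum tail current calculated versus pre-application and compared with 0.1% DMSO vehicle.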

[6] = Metabolic stability test (pooled human liver microsome); type: in vitro ADME; conditions: percentage of test compound remained after 30 minutes, pooled human liver microsome 0.5 mg protein/mL, 1 mmol/L NADPH, 37° C., compound 0.5 μM
In short: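 Pooled human liver microsomes (0.5 mg protein/mL) incubated with compound and 1 mmol/L NADPH at 37° C. in pH 7.4 Tris buffer for 0 or 30 min. Parent quantified by LC/MS/MS after methanol/acetonitrile quench; value is % remaining at 30 min versus 0 min.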

[7] = test system: AKT phosphorylation; test: AKT phosphorylation inhibitory activity in MCP-1 stimulated THP-1 cells (sandwich ELISA); type: cell-based, Human; conditions: Homo sapiens, compound at 1 μmol/L, MCP-1 stimulation, read-out: AKT phosphorylation inhibition ratio
In short: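 THP-1 cells (6.7×10^6/mL in HBSS) were preincubated with compound at 1 μmol/L for 5 min at 37 °C, then stimulated for 60 s with HBSS containing 1.2 μg/mL MCP-1 and lysed. Phospho-Akt Ser473/AKT1 sandwich ELISA was read at A450. % inhibition: no compound = 100% activity, no MCP-1 = 0%.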

[8] = molecular target: T1, PI3Kγ; test: PI3Kγ inhibitory activity (Ki value); type: biochemical
In short: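 Ki derived from IC50 measured at final compound levels of 50–0.05 μmol/L (HTRF read-out; 40 μmol/L ATP, 10 mmol/L MgCl2, 5 mmol/L DTT), IC50 by logistic or two-point linear fit. ATP Km from Lineweaver-Burk over 0.625–80 μmol/L ATP; Ki = IC50/(1+[ATP]/Km).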

[9] = molecular target: PI3Kα (Homo sapiens, UniProt P42336); test: PI3Kα inhibitory activity (Ki value); type: biochemical; conditions: class symbols; read-out: PI3K α Ki
Chain of PI3Kα (P42336 whole entry, species assumed): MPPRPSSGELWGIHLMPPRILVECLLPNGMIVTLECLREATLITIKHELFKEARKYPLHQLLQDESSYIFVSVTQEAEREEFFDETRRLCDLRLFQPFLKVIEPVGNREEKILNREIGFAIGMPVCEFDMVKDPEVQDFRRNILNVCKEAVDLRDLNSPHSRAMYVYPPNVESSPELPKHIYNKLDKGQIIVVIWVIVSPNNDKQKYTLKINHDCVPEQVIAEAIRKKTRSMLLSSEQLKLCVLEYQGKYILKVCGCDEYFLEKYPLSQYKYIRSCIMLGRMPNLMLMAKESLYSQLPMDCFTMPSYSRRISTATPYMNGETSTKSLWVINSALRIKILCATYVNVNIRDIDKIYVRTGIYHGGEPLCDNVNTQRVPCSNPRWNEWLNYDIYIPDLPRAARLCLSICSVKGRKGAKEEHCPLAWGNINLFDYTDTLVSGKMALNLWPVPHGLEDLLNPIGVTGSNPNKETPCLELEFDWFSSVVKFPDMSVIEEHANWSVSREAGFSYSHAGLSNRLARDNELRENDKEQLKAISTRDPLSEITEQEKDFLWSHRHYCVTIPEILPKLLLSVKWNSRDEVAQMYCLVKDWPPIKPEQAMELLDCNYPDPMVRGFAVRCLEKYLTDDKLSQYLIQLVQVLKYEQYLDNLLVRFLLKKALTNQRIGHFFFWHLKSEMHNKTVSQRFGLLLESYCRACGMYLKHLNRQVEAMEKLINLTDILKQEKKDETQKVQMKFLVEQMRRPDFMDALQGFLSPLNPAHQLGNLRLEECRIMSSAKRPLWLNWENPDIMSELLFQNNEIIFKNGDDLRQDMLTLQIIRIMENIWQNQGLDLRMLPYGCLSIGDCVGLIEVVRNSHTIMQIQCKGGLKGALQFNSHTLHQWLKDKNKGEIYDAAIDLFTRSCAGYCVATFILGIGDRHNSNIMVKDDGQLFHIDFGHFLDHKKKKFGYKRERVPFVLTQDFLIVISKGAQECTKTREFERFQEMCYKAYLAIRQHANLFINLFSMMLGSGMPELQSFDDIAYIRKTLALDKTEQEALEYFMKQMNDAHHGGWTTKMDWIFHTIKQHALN
Chain of PI3Kα (P27986 whole entry partner, species assumed): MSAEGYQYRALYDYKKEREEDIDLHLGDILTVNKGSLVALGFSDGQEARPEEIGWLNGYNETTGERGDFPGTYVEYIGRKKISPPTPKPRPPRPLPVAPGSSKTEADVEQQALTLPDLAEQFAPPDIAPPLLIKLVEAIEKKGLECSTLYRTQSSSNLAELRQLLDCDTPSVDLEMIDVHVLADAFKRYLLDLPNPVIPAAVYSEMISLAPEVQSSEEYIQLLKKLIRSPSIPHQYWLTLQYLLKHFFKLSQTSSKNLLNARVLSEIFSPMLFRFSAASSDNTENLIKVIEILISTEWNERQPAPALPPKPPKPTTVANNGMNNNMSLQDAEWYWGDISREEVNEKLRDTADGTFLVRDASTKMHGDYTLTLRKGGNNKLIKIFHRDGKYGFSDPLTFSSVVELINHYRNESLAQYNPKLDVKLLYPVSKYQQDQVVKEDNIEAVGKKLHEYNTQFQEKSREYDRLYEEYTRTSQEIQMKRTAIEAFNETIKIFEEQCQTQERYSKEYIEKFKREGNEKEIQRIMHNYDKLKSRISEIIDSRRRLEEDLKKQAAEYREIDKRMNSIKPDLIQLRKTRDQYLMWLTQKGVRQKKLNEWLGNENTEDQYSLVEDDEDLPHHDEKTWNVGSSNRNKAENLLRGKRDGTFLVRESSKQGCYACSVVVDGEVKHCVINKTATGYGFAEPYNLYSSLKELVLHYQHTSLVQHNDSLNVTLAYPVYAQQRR
Description: According to Example 2 above, after 80 μg/mL PI-3 kinase γ of the enzyme solution (80 μg/mL PI-3 kinase γ, 10 mmol/L MgCl2, 5 mmol/L DTT) was changed to 0.8 μg/mL PI-3 kinase α, an inhibition ratio was calculated by a method similar to the method for measuring PI3Kγ inhibitory activity, and then defined as the PI3Kα inhibitory activity.
The α inhibitory activity (Ki value) of a compound was evaluated according to the following procedure.
According to Example 4 above, a Km value for PI3Kα was determined to calculate a Ki value.

[10] = molecular target: PI3Kβ (Homo sapiens, UniProt P42338); test: PI3Kβ inhibitory activity (Ki value); type: biochemical; conditions: class symbols; read-out: PI3K β Ki
Description: According to Example 2 above, after 80 μg/mL PI-3 kinase γ of the enzyme solution (80 μg/mL PI-3 kinase γ, 10 mmol/L MgCl2, 5 mmol/L DTT) was changed to 60 μg/mL PI-3 kinase β, a method similar to the method for measuring PI3Kγ inhibitory activity was used to calculate an inhibition ratio, which was defined as the PI3Kβ inhibitory activity.
According to Example 4 above, a Km value for PI3Kβ was determined to calculate a Ki value.

[11] = molecular target: PI3Kδ (Homo sapiens, UniProt O00329); test: PI3Kδ inhibitory activity (Ki value); type: biochemical; conditions: class symbols; read-out: PI3K δ Ki
Description: According to Example 2 above, after 80 μg/mL PI-3 kinase γ of the enzyme solution (80 μg/mL PI-3 kinase γ, 10 mmol/L MgCl2, 5 mmol/L DTT) was changed to 158 μg/mL PI-3 kinase δ, a method similar to the method for measuring PI3Kγ inhibitory activity was used to calculate an inhibition ratio, which was defined as the PI3Kδ inhibitory activity.
According to Example 4 above, a Km value for PI3Kδ was determined to calculate a Ki value.

SMILES	inhibition at 10 µM [1]	solubility at 16 h [3]	IC50 at 15 min [4]	hLMS_ox(at 0.5 μM) % [6]	inhibition at 10 min, 1 µM [5]	inhibition at 1 µM [7]	other results
COc1cc(N2CCc3nc(NC(=O)Nc4ccccc4C(=O)N4CCOCC4)sc3C2)nc(OC)n1 [Compound I-10]	68%	> 50 µM	> 20 µM	–	–	–	MBI [2]: (−) (When 3 μmol/L or less, the compound is shown as (−))
COc1cc(N2CCc3nc(NC(=O)Nc4ccccc4C(=O)NC(C)(C)C(=O)O)sc3C2)nc(OC)n1 [Compound I-19]	≥ 95%	> 50 µM	> 20 µM	87.2%	–	–	inhibition at 10 min, 10 µM ([5]; compound 10 μM): 9.5%
COc1cc(N2CCc3nc(NC(=O)NC4CCCCC4C(=O)NC(C)C)sc3C2)nc(OC)n1 (stereo not drawn) [Compound I-31]	90%	32.3 µM (≈ 16.3 µg/mL)	≥ 10 µM	–	–	–	–
COc1cc(N2CCc3nc(NC(=O)Nc4ccccc4CNC(C)C)sc3C2)nc(OC)n1 [Compound I-84]	–	> 50 µM	> 20 µM	–	–	–	–
CCNC(=O)c1ccncc1NC(=O)Nc1nc2c(s1)CN(c1cnc(OC)c(OC)c1)CC2 [Compound I-103]	≥ 95%	30.1 µM (≈ 14.6 µg/mL)	–	85.8%	3.6%	–	–
COc1ccc(N2CCc3nc(NC(=O)Nc4ccccc4C(=O)NC(C)CO)sc3C2)cc1OC (stereo not drawn) [Compound I-107]	–	42.6 µM (≈ 21.8 µg/mL)	≥ 10 µM	98%	5.4%	–	–
COc1cc(N2CCc3nc(NC(=O)Nc4ccccc4C(=O)NC(C)CN(C)C)sc3C2)nc(OC)n1 (stereo not drawn) [Compound I-137]	≥ 95%	> 50 µM	–	94.5%	–	85%	–
CCOC(=O)[C@H]1CCC[C@H]1NC(=O)Nc1nc2c(s1)CN(c1cc(OC)nc(OC)n1)CC2 [Compound I-149]	–	36.1 µM (≈ 17.2 µg/mL)	> 20 µM	–	–	–	–
COc1cc(N2CCc3nc(NC(=O)Nc4ccccc4C(=O)NCC(C)(C)O)sc3C2)nc(OC)n1 [Compound I-158]	86%	24.9 µM (≈ 13.1 µg/mL)	–	99%	9.2%	≥ 95%	–
COc1cc(N2CCc3nc(NC(=O)Nc4ccccc4C(=O)NN(C)C)sc3C2)nc(OC)n1 [Compound I-182]	≥ 95%	19.6 µM (≈ 9.77 µg/mL)	–	88.1%	4.9%	≥ 95%	–
C[C@@H](CO)NC(=O)c1ccccc1NC(=O)Nc1nc2c(s1)CN(c1cc[nH]c(=O)c1)CC2 [Compound I-183]	91%	28.1 µM (≈ 13.2 µg/mL)	–	109%	–	–	Ki ([8]; class symbols, read-out: PI3K γ Ki): ≤ 0.3 µM; Ki ([8]; read-out: PI3Kγ Ki value): 0.09 µM; Ki [9]: > 3 µM; Ki [10]: > 3 µM; Ki [11]: > 3 µM
COc1cc(N2CCc3nc(NC(=O)Nc4ccccc4C(=O)NC4CCNCC4)sc3C2)nc(OC)n1 [Compound I-202]	≥ 95%	> 50 µM	≥ 10 µM	104%	–	–	–
CC(C)NC(=O)c1ccccc1NC(=O)Nc1nc2c(s1)CN(c1cnc(N)c(C(F)(F)F)c1)CC2 [Compound I-212]	≥ 95%	14 µM (≈ 7.27 µg/mL)	≥ 10 µM	–	–	≥ 95%	–
